Values after ≈ are worked out from the molar mass of the structure shown. Non-standard residues stand in square brackets, D forms with d. Residues, ends and D or L forms follow the SMILES beside them. Gly(NCH2CH2Ph) = O=C(O)CNCCc1ccccc1; Gly(N-2-aminoethyl) = NCCNCC(=O)O; hPhe = N[C@@H](CCc1ccccc1)C(=O)O; Nphe = O=C(O)CNCc1ccccc1; Orn = NCCC[C@H](N)C(=O)O; Dab = NCC[C@H](N)C(=O)O
Tests used:
[1] = system: HepG2 cell line ATCC HB-8065; test: in vitro; type: cell-based; details: 48 h
Procedure: Side effects affecting cell viability were estimated on the HepG2 cell line ATCC HB-8065. In brief, HepG2 cells were seeded in flat-bottomed 96-well plates at a concentration of 5000 cells per well. At 80−90% confluency, the cells were incubated for 24 h in a humidified incubator (5% CO2, 37 °C). The medium was removed, and the cells were incubated for 48 h in a humidified incubator (5% CO2, 37 °C) with compounds in two-fold serial dilutions. An MTT assay was then performed as previously described. In brief, after incubation with the test compounds, the culture medium was removed and fresh medium with 0.2 mg/mL MTT was added in each well of the plate. After incubation (3 h, 37 °C, 5% CO2), the medium with MTT was removed, and 200 μL dimethyl sulfoxide were added at once to each sample. Absorbance of MTT was measured using spectrophotometer TECAN Infinite M1000 at 540 nm. The relative viability was calculated by using the formula: ODtreated cells × 100/ODcontrol cells. The IC50 values are calculated by using the program Graph Pad Prism® 5.0. For all compounds, the test range was 10–1280 μg/mL.

[2] = Relative hydrophobicity by RP-HPLC (% MeCN at peak elution); type: physicochemical; details: RP-HPLC gradient 0 → 60% B during 10 min; % MeCN at peak elution calculated from retention time
Procedure: The relative hydrophobicity of each peptidomimetic was measured by reverse-phase high-performance liquid chromatography (RP-HPLC). Typically, the RP-HPLC retention time (or percentage acetonitrile at peak elution) constitutes the preferred measure that allows for comparison of relative hydrophobicity, while log P values of polycationic peptides or peptidomimetics normally are considered unsuitable due to the extreme hydrophilic nature of such compounds [11, 45, 57, 58, 59, 60]. […] For both subgroups III (with cationic amino acid residues and the peptoid analogue of Phe, NPhe, i.e., 9–12) and IV (with cationic amino acid residues and the peptoid analogue of hPhe, NhPhe, i.e., 13–16) only minor differences in hydrophobicity were seen. These observations infer that, when the cationic residues are of a peptoid nature, the side-chain length of these has a […] influence on the hydrophobicity. […] Thus, introduction of additional six methylene groups results, as expected, in increased hydrophobicity.
Starting materials and solvents were purchased from commercial suppliers (Iris Biotech, Markredwitz, Germany; Fluorochem, Hadfield, United Kingdom; and Merck, Darmstadt, Germany) and used without further purification. Water used for analytical and preparative high-performance liquid chromatography (HPLC) was filtered through a 0.22-μm Millipore membrane filter. Purity and retention time of each peptidomimetic were determined by analytical UHPLC by using a Phenomenex Luna C18(2) HST column (100 mm × 3 mm; particle size: 2.5 μm; pore size: 100 Å) on a Shimadzu Prominence and Shimadzu Nexera system using an aqueous acetonitrile (MeCN) gradient with 0.1% trifluoroacetic acid (TFA) added (eluent A: 5:95 MeCN–H2O + 0.1% TFA, eluent B: 95:5 MeCN–H2O + 0.1% TFA); a flow rate of 0.5 mL/min was used. For elution of peptidomimetics, a linear gradient of 0% to 60% B during 10 min was used with UV detection at λ = 220 nm. […] For each peptidomimetic, the percentage of MeCN at peak elution was calculated from the retention time by using the following formula:(1) %MeCN = 0.95 (0.6Rt/10 min.) + 0.05 (1−0.6Rt/10 min.).

[3] = system: E. faecalis ATCC 29212; type: cell-based; details: for MIC: ATCC 29212, 20 h
Procedure: (§1) MIC values were evaluated by using the modified Hancock lab protocol in non-binding polystyrene microtitre plates, with bacterial suspensions of ∼2 × 10^5 CFU/mL in Mueller-Hinton broth (Difco, Sparks MD, USA), with Mg^2+ and Ca^2+ concentrations of 4 mg/L each. The compounds were dissolved in H2O and diluted in 0.01% acetic acid, 0.2% BSA (final concentration). Aliquots of 11 µL of 10 × test compounds were then transferred to the appropriate wells with bacterial suspensions. For preparation and transfer of the solutions of the compounds, low-binding sterile tubes and tips (Axygen, Union City CA, USA) were used. After 20 h incubation of covered plates at 35 °C (±2 °C) with circular shaking at 220 rpm, the MICs were read. The antibacterial activity of peptidomimetics was tested against E. coli ATCC 25922, K. pneumoniae ATCC 13883, P. aeruginosa ATCC 27853, P. aeruginosa PAO1, A. baumannii ATCC 19606, S. aureus ATCC 29213, and E. faecalis ATCC 29212.

[4] = system: P. aeruginosa ATCC 27853; type: cell-based; details: ATCC 27853, 20 h
Procedure: as §1

[5] = system: E. coli ATCC 25922; type: cell-based; details: ATCC 25922, 20 h
Procedure: as §1

[6] = system: P. aeruginosa PAO1; type: cell-based; details: PAO1, 20 h
Procedure: as §1

[7] = system: K. pneumoniae ATCC 13883; type: cell-based; details: ATCC 13883, 20 h
Procedure: as §1

[8] = system: S. aureus ATCC 29213; type: cell-based; details: for MIC: ATCC 29213, 20 h
Procedure: as §1

[9] = system: A. baumannii ATCC 19606; type: cell-based; details: ATCC 19606, 20 h
Procedure: as §1

[10] = in vitro; type: cell-based; details: human, Hemolytic Activity (percentage hemolysis)
Procedure: The lysis of human red blood cells was measured as previously described, with modifications. In brief, freshly drawn human red blood cells (hRBCs) were washed three times with PBS buffer and centrifuged two times for 5 min at 2500 rpm. A two-fold serial dilution of peptidomimetics in PBS buffer was added to each well in a sterile polypropylene V-bottom 96-well plate to the total volume of 75 μL. A 0.5% v/v hRBC suspension (75 μL in PBS buffer) was added to each well to reach a final volume of 150 μL in each well. The plate was incubated (37 °C) for 60 min, and then the cells were subsequently pelleted by centrifugation at 1000 rpm for 5 min. The supernatants (50 μL) were transferred to clear, flat-bottomed plastic 96-well plates. The concentration of hemoglobin was detected by measuring the OD at 405 nm. The OD of cells incubated with 0.1% SDS defined 100% hemolysis, while the OD of cells incubated with PBS buffer defined 0% hemolysis. The concentrations tested were 200, 400, and 800 μg/mL (only average values for the highest concentration are stated in Table 2).

SMILES | IC50 for inhibiting growth of HepG2 cells [1] [mg/L] | Hydrophobicity (% MeCN at elution) [2] [%] | MIC [3] [mg/L] | Activity against E. faecalis (in words) ([3]; E. faecalis) | MIC [4] [mg/L] | MIC [5] [mg/L] | MIC [6] [mg/L] | MIC [7] [mg/L] | MIC [8] [mg/L] | Activity against S. aureus (in words) ([8]; S. aureus) | MIC [9] [mg/L] | hemolysis at 60 min, 800 µg/mL [10] [%]
NCCNCC(=O)N[C@@H](CCc1ccccc1)C(=O)N(CCN)CC(=O)N[C@@H](CCc1ccccc1)C(=O)N(CCN)CC(=O)N[C@@H](CCc1ccccc1)C(=O)N(CCN)CC(=O)N[C@@H](CCc1ccccc1)C(=O)N(CCN)CC(=O)N[C@@H](CCc1ccccc1)C(=O)N(CCN)CC(=O)N[C@@H](CCc1ccccc1)C(N)=O [Peptidomimetic 5] (H-[Gly(N-2-aminoethyl)][hPhe][Gly(N-2-aminoethyl)][hPhe][Gly(N-2-aminoethyl)][hPhe][Gly(N-2-aminoethyl)][hPhe][Gly(N-2-aminoethyl)][hPhe][Gly(N-2-aminoethyl)][hPhe]-NH2) | 307 | 43.5 | 32 (≈ 20.2 µM) | weak activity | 4 (≈ 2.52 µM) | 4 (≈ 2.52 µM) | 16 (≈ 10.1 µM) | 64 (≈ 40.4 µM) | 8 (≈ 5.05 µM) | moderate activity | >64 | 
NCC[C@H](NC(=O)CN(CCc1ccccc1)C(=O)[C@H](CCN)NC(=O)CN(CCc1ccccc1)C(=O)[C@H](CCN)NC(=O)CN(CCc1ccccc1)C(=O)[C@H](CCN)NC(=O)CN(CCc1ccccc1)C(=O)[C@H](CCN)NC(=O)CN(CCc1ccccc1)C(=O)[C@@H](N)CCN)C(=O)N(CCc1ccccc1)CC(N)=O [Peptidomimetic 13] (H-[Dab][Gly(NCH2CH2Ph)][Dab][Gly(NCH2CH2Ph)][Dab][Gly(NCH2CH2Ph)][Dab][Gly(NCH2CH2Ph)][Dab][Gly(NCH2CH2Ph)][Dab][Gly(NCH2CH2Ph)]-NH2) | 261 |  | >64 |  | 2 (≈ 1.26 µM) | 4 (≈ 2.52 µM) | 2 to 4 | 32 (≈ 20.2 µM) | >64 |  | >64 | 53
NCCC[C@H](NC(=O)CN(Cc1ccccc1)C(=O)[C@H](CCCN)NC(=O)CN(Cc1ccccc1)C(=O)[C@H](CCCN)NC(=O)CN(Cc1ccccc1)C(=O)[C@H](CCCN)NC(=O)CN(Cc1ccccc1)C(=O)[C@H](CCCN)NC(=O)CN(Cc1ccccc1)C(=O)[C@@H](N)CCCN)C(=O)N(CC(N)=O)Cc1ccccc1 [Peptidomimetic 10] (H-[Orn][Nphe][Orn][Nphe][Orn][Nphe][Orn][Nphe][Orn][Nphe][Orn][Nphe]-NH2) | 923 |  | >64 |  | 2 to 4 | 4 to 8 | 4 to 8 | >64 | >64 |  |  | 10

— publication PMC6943742, “Peptide/Peptoid Hybrid Oligomers: The Influence of Hydrophobicity and Relative Side-Chain Length on Antibacterial Activity and Cell Selectivity” (Molecules, 2019)
